# Laboratory results as given in PMC7566600, “Engineering Af1521 improves ADP-ribose binding and identification of ADP-ribosylated proteins” (Nature Communications, 2020).
# Molecular target: T1, WT Af1521 macro domain (Archaeoglobus fulgidus, UniProt O28751)
# T1 construct: gene AF_1521; macro domain, His-tagged
# T1 sequence (O28751 1-192): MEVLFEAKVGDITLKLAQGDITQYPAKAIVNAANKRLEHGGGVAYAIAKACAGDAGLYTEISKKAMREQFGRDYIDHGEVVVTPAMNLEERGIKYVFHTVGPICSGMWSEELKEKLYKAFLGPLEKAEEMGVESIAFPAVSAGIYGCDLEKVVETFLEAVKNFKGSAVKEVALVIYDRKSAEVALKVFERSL
# Test: SPR ([…] kinetic fit; steady-state fit gave […]), immobilized protein
# Format: binding
compound,measurement,value
Nc1ncnc2c1ncn2[C@@H]1O[C@H](COP(=O)(O)OP(=O)(O)OC[C@H]2O[C@H](O)[C@H](O)[C@@H]2O)[C@@H](O)[C@H]1O [ADP-ribose],Kd,2879 ± 9 nM
